Experimental findings from publication PMC9037614 (RSC Advances, 2021) are described below.

Assay in all cases: cells
Common to all, as to format: cell-based

Experiment [1] deals with human bronchial epithelial cell line HBE. Conditions: for IC50: Homo sapiens, HBE, read-out: IC50 against HBE.
Experiment [2] concerns human non-small-cell lung cancer A549 cells. Conditions: A549, read-out: IC50 against A549.
For experiment [3], the system named is human non-small-cell lung cancer H460 cells. As to conditions: NCI-H460, read-out: IC50 against H460.

As usually defined, the IC50 is the concentration that inhibits the measured activity by half. Take `O=c1[nH]cc(F)c(=O)[nH]1` [Compound 5-FU, 5-fluorouracil, reference compound]: the values for the IC50 in experiment [1], in experiment [2] and in experiment [3] were 8.93 ± 6.05 µM, 12.5 ± 8.81 µM and 6.16 ± 1.8 µM, respectively.
Regarding `C=C1[C@H]2C[C@@]3([C@@H]1O)[C@@H](CC2=O)[C@]12[C@@H]4C[C@H]3[C@H]1N(CC)C[C@]4(C)CC[C@@H]2O` [Compound 5, songorine], the IC50 in experiment [1] was determined as 32.4 ± 2.62 µM; in experiment [2] it was 21.2 ± 0.84 µM; in experiment [3], 25.1 ± 0.59 µM.
For `COC[C@@]12CC[C@H](OC)[C@]34C(C([C@H](OC)[C@H]13)[C@]1(OC(C)=O)[C@H]3[C@@H](OC(=O)c5ccccc5)[C@](O)(C[C@H]34)[C@@H](OC)[C@@H]1O)N(C)C2` [Compound 33, hypaconitine] the same measures were 32.7 ± 4.56 µM, 14.3 ± 1.79 µM and 16.5 ± 2.22 µM.
As to `CCN1C[C@]2(COC)CC[C@H](O)[C@@]34C5C[C@@H]6[C@@H](OC)C[C@](O)(C(CC23)C14)C5[C@H]6OC(C)=O` (stereo partly shown) [Compound 30, condelphine], the IC50 in experiment [1] turned out to be 31.4 ± 6 µM; in experiment [2], 16.4 ± 2.38 µM; in experiment [3], 16 ± 1.15 µM.
Regarding `CCN1C[C@]2(C)CC[C@H](O)[C@@]34C5C[C@@H]6[C@@H](OC)C[C@@](O)(C5[C@H]6O)[C@@H](CC23)C14` (stereo partly shown) [Compound 9, karacoline], the “selectivity towards cancerous cell lines over non-cancerous cell line” value in experiment [1] (A549/H460 versus HBE, from IC50 values) is “higher selectivity”. The results for the IC50 in experiment [1], in experiment [2] and in experiment [3] were 49.7 ± 8.11 µM, 8.28 ± 0.41 µM and 9.69 ± 0.4 µM, respectively.
Consider `CCN1C[C@]2(COC)CC[C@H](OC)[C@]34C1C([C@H](OC)[C@H]23)[C@]1(OC(C)=O)[C@H]2[C@@H](OC(=O)c3ccccc3)[C@](O)(C[C@H]24)[C@@H](OC)[C@@H]1O` [Compound 34, deoxyaconitine], for which the IC50 in experiment [1] was 31 ± 4.8 µM; in experiment [2], 14.9 ± 4.02 µM; in experiment [3], 14.6 ± 1.32 µM.
